# Measurements published in patent US20020137929A1, “1 - (3-heterocyclylphenyl) isothiourea, -isourea, -guanidine and -amidine herbicidal agents” (Intellectual Property Department, BASF Aktiengesellschaft, priority 1998, published 2002).
# What was measured:
# [1] = system: ABUTH (Velvetleaf); test: Postemergence herbicidal evaluation; assay type: in vivo, Abutilon theophrasti; details: postemergence
# In short: (§1)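 Two-week-old seedlings sprayed with compound in 50/50 acetone/water plus 0.5% TWEEN 20, at about 0.0156 to 0.500 kg/ha, nozzle at 40 psi. Kept in greenhouse; rated visually 4-5 weeks after treatment on a 0-9 scale versus control, repeat tests averaged.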
# [2] = system: CHEAL (Lambsquarters, Common); test: Postemergence herbicidal evaluation; assay type: in vivo, Chenopodium album; details: postemergence
# In short: as §1
# [3] = system: SETVI (Foxtail, Green); test: Postemergence herbicidal evaluation; assay type: in vivo, Setaria viridis; details: postemergence
# In short: as §1
# [4] = system: GLXMAW (Soybean, Williams); test: Postemergence herbicidal evaluation; assay type: in vivo, Glycine max, (L.) Merr. cv Williams; details: postemergence
# In short: as §1
# [5] = system: ORYSAT (Rice, Tebonnet); test: Postemergence herbicidal evaluation; assay type: in vivo, Oryza sativa, (L.) Tebonnet; details: postemergence
# In short: as §1
# [6] = system: TRZAWR (Wheat, Winter, cv Riband); test: Postemergence herbicidal evaluation; assay type: in vivo, Triticum aestivum; details: postemergence
# In short: as §1
# [7] = system: ZEAMX (Corn, Field); test: Postemergence herbicidal evaluation; assay type: in vivo, Zea mays; details: postemergence
# In short: as §1
# [8] = system: AMBEL (Ragweed, Common); test: Preemergence herbicidal evaluation; assay type: in vivo, Ambrosia artemisifolia; details: rated 4-5 weeks after treatment
# In short: (§2)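 Test compound, dissolved in aqueous acetone, was sprayed over planted soil cups at an equivalent of about 0.0156 to 0.500 kg/ha; seeds had been mixed with potting soil. Greenhouse growth followed, with visual 0-9 scoring of injury at four to five weeks.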
# [9] = system: GALAP (Galium); test: Preemergence herbicidal evaluation; assay type: in vivo, Galium aparine; details: rated 4-5 weeks after treatment
# In short: as §2
# [10] = system: SETVI (Foxtail, Green); test: Preemergence herbicidal evaluation; assay type: in vivo, Setaria viridis; details: rated 4-5 weeks after treatment
# In short: as §2
# [11] = system: CYPIR (Rice Flatsedge); test: Preemergence weed control under flooded paddy conditions; assay type: in vivo, Cyperus iria; details: rated 3-4 weeks after treatment
# In short: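 Ratings on a 0-9 visual scale cover stand, vigor, malformation, size, chlorosis and overall appearance relative to a control, taken three to four weeks post-treatment. Application was into flood water over freshly sown silt loam at roughly 0.0313 to 0.500 kg/ha.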
# [12] = system: ECHORC (Watergrass (Calif.)); test: Postemergence weed control under flooded paddy conditions; assay type: in vivo, Echinochloa oryzoides; details: postemergence weeds
# In short: (§3)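 Flood-water application, about 0.0313–0.500 kg/ha a.i. in aqueous/acetone 50/50 v/v; water depth 1.5–3 cm throughout. Weeds 3–5 cm, rice 1.5–2.5 leaf. Greenhouse; 0–9 visual rating vs control at 3–4 wk.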
# [13] = system: CYPSE (Flatsedge); test: as above; assay type: in vivo, Cyperus serotinus; details: postemergence weeds
# In short: as §3
# [14] = system: SAGPY (Arrowhead (Pygmaea)); test: as above; assay type: in vivo, Sagittaria pygmaea; details: postemergence weeds
# In short: as §3
# [15] = rate 0.0313 kg/ha, 3-4 weeks after treatment
# [16] = rate 0.0625 kg/ha, 3-4 weeks after treatment
# [17] = rate 0.1250 kg/ha, 3-4 weeks after treatment
# [18] = rate 0.2500 kg/ha, 3-4 weeks after treatment
# [19] = Rate 0.0313 kg/ha, rated 3 to 4 weeks after treatment
# [20] = Rate 0.0625 kg/ha, rated 3 to 4 weeks after treatment
# [21] = Rate 0.1250 kg/ha, rated 3 to 4 weeks after treatment
# [22] = Rate 0.2500 kg/ha, rated 3 to 4 weeks after treatment
compound,measurement,setting,value
CCC1SC(=Nc2cc(-n3c(=O)cc(C(F)(F)F)n(C)c3=O)c(F)cc2Cl)N(C)C1=O (stereo not drawn) [Compound 10],ABUTH herbicidal rating,[1]; rate 0.0156 kg/ha,9.0
same,ABUTH herbicidal rating,[1]; rate 0.0313 kg/ha,6.5
same,ABUTH herbicidal rating,[1]; rate 0.0625 kg/ha,7.0
same,ABUTH herbicidal rating,[1]; rate 0.1250 kg/ha,9.0
same,CHEAL herbicidal rating,[2]; rate 0.0156 kg/ha,7.0
same,CHEAL herbicidal rating,[2]; rate 0.0313 kg/ha,7.0
same,CHEAL herbicidal rating,[2]; rate 0.0625 kg/ha,9.0
same,CHEAL herbicidal rating,[2]; rate 0.1250 kg/ha,9.0
same,SETVI herbicidal rating,[3]; rate 0.0156 kg/ha,0.0
same,SETVI herbicidal rating,[3]; rate 0.0313 kg/ha,0.0
same,SETVI herbicidal rating,[3]; rate 0.0625 kg/ha,1.0
same,SETVI herbicidal rating,[3]; rate 0.1250 kg/ha,3.0
same,GLXMAW herbicidal rating,[4]; rate 0.0156 kg/ha,4.0
same,GLXMAW herbicidal rating,[4]; rate 0.0313 kg/ha,4.5
same,GLXMAW herbicidal rating,[4]; rate 0.0625 kg/ha,5.3
same,GLXMAW herbicidal rating,[4]; rate 0.1250 kg/ha,5.8
same,ORYSAT herbicidal rating,[5]; rate 0.0156 kg/ha,1.8
same,ORYSAT herbicidal rating,[5]; rate 0.0313 kg/ha,2.5
same,ORYSAT herbicidal rating,[5]; rate 0.0625 kg/ha,2.5
same,ORYSAT herbicidal rating,[5]; rate 0.1250 kg/ha,3.0
same,TRZAWR herbicidal rating,[6]; rate 0.0156 kg/ha,2.5
same,TRZAWR herbicidal rating,[6]; rate 0.0313 kg/ha,3.3
same,TRZAWR herbicidal rating,[6]; rate 0.0625 kg/ha,3.3
same,TRZAWR herbicidal rating,[6]; rate 0.1250 kg/ha,3.5
same,ZEAMX herbicidal rating,[7]; rate 0.0156 kg/ha,4.3
same,ZEAMX herbicidal rating,[7]; rate 0.0313 kg/ha,5.3
same,ZEAMX herbicidal rating,[7]; rate 0.0625 kg/ha,5.3
same,ZEAMX herbicidal rating,[7]; rate 0.1250 kg/ha,5.3
same,AMBEL preemergence herbicidal rating,[8]; rate 0.0156 kg/ha,0.3
same,AMBEL preemergence herbicidal rating,[8]; rate 0.0313 kg/ha,0.3
same,AMBEL preemergence herbicidal rating,[8]; rate 0.0625 kg/ha,3.3
same,AMBEL preemergence herbicidal rating,[8]; rate 0.1250 kg/ha,4.7
same,AMBEL preemergence herbicidal rating,[8]; rate 0.2500 kg/ha,6.3
same,GALAP preemergence herbicidal rating,[9]; rate 0.0156 kg/ha,0.5
same,GALAP preemergence herbicidal rating,[9]; rate 0.0313 kg/ha,2.0
same,GALAP preemergence herbicidal rating,[9]; rate 0.0625 kg/ha,4.5
same,GALAP preemergence herbicidal rating,[9]; rate 0.1250 kg/ha,9.0
same,GALAP preemergence herbicidal rating,[9]; rate 0.2500 kg/ha,9.0
same,SETVI preemergence herbicidal rating,[10]; rate 0.0156 kg/ha,2.3
same,SETVI preemergence herbicidal rating,[10]; rate 0.0313 kg/ha,5.7
same,SETVI preemergence herbicidal rating,[10]; rate 0.0625 kg/ha,9.0
same,SETVI preemergence herbicidal rating,[10]; rate 0.1250 kg/ha,9.0
same,SETVI preemergence herbicidal rating,[10]; rate 0.2500 kg/ha,9.0
same,Herbicidal rating CYPIR,[11]; 0.0313 kg/ha,0.0
same,Herbicidal rating CYPIR,[11]; 0.0625 kg/ha,0.0
same,Herbicidal rating CYPIR,[11]; 0.1250 kg/ha,2.0
same,Herbicidal rating CYPIR,[11]; 0.2500 kg/ha,4.0
same,Herbicidal rating ECHORC,[12]; [15],0.0
same,Herbicidal rating ECHORC,[12]; [16],1.0
same,Herbicidal rating ECHORC,[12]; [17],2.0
same,Herbicidal rating ECHORC,[12]; [18],2.0
same,Herbicidal rating CYPSE,[13]; [15],0.0
same,Herbicidal rating CYPSE,[13]; [16],0.0
same,Herbicidal rating CYPSE,[13]; [17],0.0
same,Herbicidal rating CYPSE,[13]; [18],0.0
same,Herbicidal rating SAGPY,[14]; [15],0.0
same,Herbicidal rating SAGPY,[14]; [16],0.0
same,Herbicidal rating SAGPY,[14]; [17],0.0
same,Herbicidal rating SAGPY,[14]; [18],0.0
"CCOC(=O)C(c1ccc(Cl)cc1)N1C(=O)CSC1=Nc1cc(-n2c(=O)cc(C(F)(F)F)n(C)c2=O)c(F)cc1Cl (racemic) [Compound 79, Ethyl α-(p-chlorophenyl)-2-{{2-chloro-5-[3,6-dihydro-3-methyl-2,6-dioxo-4-(trifluoromethyl)-1(2H)-pyrimidinyl]-4-fluorophenyl}imino}-4-oxo-3-thiazolidineacetate, DL-]",ABUTH herbicidal rating,[1]; rate 0.0158 kg/ha,9.0
same,ABUTH herbicidal rating,[1]; rate 0.0315 kg/ha,9.0
same,ABUTH herbicidal rating,[1]; rate 0.0630 kg/ha,9.0
same,CHEAL herbicidal rating,[2]; rate 0.0158 kg/ha,1.0
same,CHEAL herbicidal rating,[2]; rate 0.0315 kg/ha,7.0
same,CHEAL herbicidal rating,[2]; rate 0.0630 kg/ha,7.0
same,SETVI herbicidal rating,[3]; rate 0.0158 kg/ha,4.0
same,SETVI herbicidal rating,[3]; rate 0.0315 kg/ha,1.0
same,SETVI herbicidal rating,[3]; rate 0.0630 kg/ha,1.0
same,GLXMAW herbicidal rating,[4]; rate 0.0158 kg/ha,4.5
same,GLXMAW herbicidal rating,[4]; rate 0.0315 kg/ha,5.0
same,GLXMAW herbicidal rating,[4]; rate 0.0630 kg/ha,5.0
same,ORYSAT herbicidal rating,[5]; rate 0.0158 kg/ha,2.5
same,ORYSAT herbicidal rating,[5]; rate 0.0315 kg/ha,2.5
same,ORYSAT herbicidal rating,[5]; rate 0.0630 kg/ha,4.0
same,TRZAWR herbicidal rating,[6]; rate 0.0158 kg/ha,3.0
same,TRZAWR herbicidal rating,[6]; rate 0.0315 kg/ha,2.5
same,TRZAWR herbicidal rating,[6]; rate 0.0630 kg/ha,5.0
same,ZEAMX herbicidal rating,[7]; rate 0.0158 kg/ha,5.0
same,ZEAMX herbicidal rating,[7]; rate 0.0315 kg/ha,4.5
same,ZEAMX herbicidal rating,[7]; rate 0.0630 kg/ha,5.0
same,Preemergence herbicidal rating AMBEL,[8]; rate 0.0313 kg/ha,1.0
same,Preemergence herbicidal rating AMBEL,[8]; rate 0.0625 kg/ha,3.0
same,Preemergence herbicidal rating AMBEL,[8]; rate 0.1250 kg/ha,1.0
same,Preemergence herbicidal rating AMBEL,[8]; rate 0.2500 kg/ha,8.0
same,Preemergence herbicidal rating GALAP,[9]; rate 0.0313 kg/ha,0.0
same,Preemergence herbicidal rating GALAP,[9]; rate 0.0625 kg/ha,0.0
same,Preemergence herbicidal rating GALAP,[9]; rate 0.1250 kg/ha,0.0
same,Preemergence herbicidal rating GALAP,[9]; rate 0.2500 kg/ha,0.0
same,Preemergence herbicidal rating SETVI,[10]; rate 0.0313 kg/ha,1.0
same,Preemergence herbicidal rating SETVI,[10]; rate 0.0625 kg/ha,1.0
same,Preemergence herbicidal rating SETVI,[10]; rate 0.1250 kg/ha,1.0
same,Preemergence herbicidal rating SETVI,[10]; rate 0.2500 kg/ha,4.0
same,CYPIR herbicidal effect rating,[11]; 0.0313 kg/ha,0.0
same,CYPIR herbicidal effect rating,[11]; 0.0625 kg/ha,0.0
same,CYPIR herbicidal effect rating,[11]; 0.1250 kg/ha,2.0
same,CYPIR herbicidal effect rating,[11]; 0.2500 kg/ha,6.0
same,Herbicidal rating ECHORC,[12]; [19],5.0
same,Herbicidal rating ECHORC,[12]; [20],6.0
same,Herbicidal rating ECHORC,[12]; [21],7.0
same,Herbicidal rating ECHORC,[12]; [22],8.0
same,Herbicidal rating CYPSE,[13]; [19],0.0
same,Herbicidal rating CYPSE,[13]; [20],0.0
same,Herbicidal rating CYPSE,[13]; [21],0.0
same,Herbicidal rating CYPSE,[13]; [22],9.0
same,Herbicidal rating SAGPY,[14]; [19],0.0
same,Herbicidal rating SAGPY,[14]; [20],0.0
same,Herbicidal rating SAGPY,[14]; [21],4.0
same,Herbicidal rating SAGPY,[14]; [22],4.0
